In patent publication US8163779B2, “Glucokinase activators” (Takeda San Diego, Inc., priority 2006, dated 2012):
pEC50: −log10 of the molar value.

molecular target: T1, glucokinase (GK) (Homo sapiens, UniProt P35557); assay: enzymatic glucokinase activity assay (ATP consumption, KinaseGlo luminescence); assay type: biochemical; conditions: recombinant GK residues 12-465; 5 μM ATP, 5 mM Glucose; Kact = concentration that displays 50% of the maximal increase in GK activity; read-out: pKact
T1 construct: I.D. No. 1 corresponds to residues 12-465 of glucokinase; made in house; host or cells: E. coli DH10b-T1r
T1 sequence (P35557 with tags, fused parts or gaps isoform P35557-2): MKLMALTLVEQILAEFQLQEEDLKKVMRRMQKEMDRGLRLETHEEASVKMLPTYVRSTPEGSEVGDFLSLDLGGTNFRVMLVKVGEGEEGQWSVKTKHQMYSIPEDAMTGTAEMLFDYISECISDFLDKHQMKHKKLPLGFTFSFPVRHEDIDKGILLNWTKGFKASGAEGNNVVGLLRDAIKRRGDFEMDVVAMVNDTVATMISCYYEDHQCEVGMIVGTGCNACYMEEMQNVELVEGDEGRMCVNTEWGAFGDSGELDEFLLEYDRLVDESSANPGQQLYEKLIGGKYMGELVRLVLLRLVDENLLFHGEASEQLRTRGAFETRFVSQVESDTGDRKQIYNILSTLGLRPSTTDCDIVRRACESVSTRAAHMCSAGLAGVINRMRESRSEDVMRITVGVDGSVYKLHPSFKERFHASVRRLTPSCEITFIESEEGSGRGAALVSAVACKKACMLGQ
How it was run: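 Recombinant human glucokinase expressed in E. coli was run in 25 mM Hepes pH 7.2 with 10 mM MgCl2, 1 mM DTT, 5 μM ATP, 5 mM glucose and 2% DMSO for 60 min at room temperature. Remaining ATP was read by KinaseGlo luminescence; pKact came from non-linear curve fits.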

pEC50 | Compound
< 4.80 | Cc1cc(-c2ccccc2F)cc(=O)n1[C@@H](CC1CCCCC1)C(=O)Nc1nccs1 [Example 110, (S)-3-cyclohexyl-2-(4-(2-fluorophenyl)-6-methyl-2-oxopyridin-1(2H)-yl)-N-(thiazol-2-yl)propanamide]
< 4.80 | Cc1csc(-c2cc(C)n([C@@H](CC3CCCCC3)C(=O)Nc3nccs3)c(=O)c2)c1 [Example 111, (S)-3-cyclohexyl-2-(6-methyl-4-(4-methylthiophen-2-yl)-2-oxopyridin-1(2H)-yl)-N-(thiazol-2-yl)propanamide]
< 4.80 | Cc1cc(-c2cccc(NS(C)(=O)=O)c2)cc(=O)n1[C@@H](CC1CCCCC1)C(=O)Nc1nccs1 [Example 112, (S)-3-cyclohexyl-2-(6-methyl-4-(3-(methylsulfonamido)phenyl)-2-oxopyridin-1(2H)-yl)-N-(thiazol-2-yl)propanamide]
< 4.80 | Cc1cc(-c2cn[nH]c2)cc(=O)n1[C@@H](CC1CCCCC1)C(=O)Nc1nccs1 [Example 113, (S)-3-cyclohexyl-2-(6-methyl-2-oxo-4-(1H-pyrazol-4-yl)pyridin-1(2H)-yl)-N-(thiazol-2-yl)propanamide]
4.80 to 5.80 | CNS(=O)(=O)c1cccc(-c2cc(C)n([C@@H](CC3CCCCC3)C(=O)Nc3nccs3)c(=O)c2)c1 [Example 114, (S)-3-cyclohexyl-2-(6-methyl-4-(3-(N-methylsulfamoyl)phenyl)-2-oxopyridin-1(2H)-yl)-N-(thiazol-2-yl)propanamide]
< 4.80 | CNS(=O)(=O)c1ccc(-c2cc(C)n([C@@H](CC3CCCCC3)C(=O)Nc3nccs3)c(=O)c2)cc1 [Example 115, (S)-3-cyclohexyl-2-(6-methyl-4-(4-(N-methylsulfamoyl)phenyl)-2-oxopyridin-1(2H)-yl)-N-(thiazol-2-yl)propanamide]
< 4.80 | CC(C)(O)c1cnc(NC(=O)C(CC2CCOCC2)n2ccc(S(=O)(=O)C3CC3)cc2=O)s1 (stereo not shown) [Example 117, 2-(4-(cyclopropylsulfonyl)-2-oxopyridin-1(2H)-yl)-N-(5-(2-hydroxypropan-2-yl)thiazol-2-yl)-3-(tetrahydro-2H-pyran-4-yl)propanamide]
> 5.80 | Cc1c(S(=O)(=O)C2CCCC2)c(C)c(=O)n(C(CC2CCOCC2)C(=O)Nc2ncc(Cl)s2)c1C (stereo not shown) [Example 118, N-(5-chlorothiazol-2-yl)-2-(4-(cyclopentylsulfonyl)-3,5,6-trimethyl-2-oxopyridin-1(2H)-yl)-3-(tetrahydro-2H-pyran-4-yl)propanamide]
4.80 to 5.80 | Cc1cc(S(=O)(=O)c2cc(Cl)sc2Cl)cc(=O)n1C(CC1CCOCC1)C(=O)Nc1ncc(Cl)s1 (stereo not shown) [Example 119, N-(5-chlorothiazol-2-yl)-2-(4-(2,5-dichlorothiophen-3-ylsulfonyl)-6-methyl-2-oxopyridin-1(2H)-yl)-3-(tetrahydro-2H-pyran-4-yl)propanamide]
< 4.80 | COCCC(C)(C)S(=O)(=O)c1ccn([C@H](CC2CCOCC2)C(=O)Nc2nc3ccc(OC)nc3s2)c(=O)c1 [Example 120, (R)-2-(4-(4-methoxy-2-methylbutan-2-ylsulfonyl)-2-oxopyridin-1(2H)-yl)-N-(5-methoxythiazolo[5,4-b]pyridin-2-yl)-3-(tetrahydro-2H-pyran-4-yl)propanamide]
4.80 to 5.80 | COCCC(C)(C)S(=O)(=O)c1ccn([C@@H](CC2CCOCC2)C(=O)Nc2nc3ccc(OC)nc3s2)c(=O)c1 [Example 121, (S)-2-(4-(4-methoxy-2-methylbutan-2-ylsulfonyl)-2-oxopyridin-1(2H)-yl)-N-(5-methoxythiazolo[5,4-b]pyridin-2-yl)-3-(tetrahydro-2H-pyran-4-yl)propanamide]
4.80 to 5.80 | COc1ccc2nc(NC(=O)[C@@H](CC3CCCCC3)n3c(C)cc(S(=O)(=O)C4CC4)cc3=O)sc2n1 [Example 122, (R)-3-cyclohexyl-2-(4-(cyclopropylsulfonyl)-6-methyl-2-oxopyridin-1(2H)-yl)-N-(5-methoxythiazolo[5,4-b]pyridin-2-yl)propanamide]
> 5.80 | COc1ccc2nc(NC(=O)[C@H](CC3CCCCC3)n3c(C)cc(S(=O)(=O)C4CC4)cc3=O)sc2n1 [Example 123, (S)-3-cyclohexyl-2-(4-(cyclopropylsulfonyl)-6-methyl-2-oxopyridin-1(2H)-yl)-N-(5-methoxythiazolo[5,4-b]pyridin-2-yl)propanamide]
< 4.80 | O=C(Nc1ncc(Cl)s1)C(CC1CCCCC1)n1cc(Cl)c2sccc2c1=O (stereo not shown) [Example 124, 2-(7-chloro-4-oxothieno[3,2-c]pyridin-5(4H)-yl)-N-(5-chlorothiazol-2-yl)-3-cyclohexylpropanamide]
< 4.80 | COc1ccc2nc(NC(=O)C(CC3CCOCC3)n3ccc(N4CC[C@H](O)C4)cc3=O)sc2n1 (stereo partly drawn) [Example 125, 2-(4-((S)-3-hydroxypyrrolidin-1-yl)-2-oxopyridin-1(2H)-yl)-N-(5-methoxythiazolo[5,4-b]pyridin-2-yl)-3-(tetrahydro-2H-pyran-4-yl)propanamide]
< 4.80 | Cc1cc(-c2cccc(S(C)(=O)=O)c2)cc(=O)n1[C@@H](CC1CCCCC1)C(=O)Nc1nccs1 [Example 126, (S)-3-cyclohexyl-2-(6-methyl-4-(3-(methylsulfonyl)phenyl)-2-oxopyridin-1(2H)-yl)-N-(thiazol-2-yl)propanamide]
4.80 to 5.80 | COc1ccc2nc(NC(=O)C(CC3CCOCC3)n3ccc(S(=O)(=O)C4CC4)cc3=O)sc2c1 (stereo not shown) [Example 127, 2-(4-(cyclopropylsulfonyl)-2-oxopyridin-1(2H)-yl)-N-(6-methoxybenzo[d]thiazol-2-yl)-3-(tetrahydro-2H-pyran-4-yl)propanamide]
> 5.80 | CN(C)c1ccc2nc(NC(=O)C(CC3CCOCC3)n3ccc(S(=O)(=O)C4CC4)cc3=O)sc2n1 (stereo not shown) [Example 128, 2-(4-(cyclopropylsulfonyl)-2-oxopyridin-1(2H)-yl)-N-(5-(dimethylamino)thiazolo[5,4-b]pyridin-2-yl)-3-(tetrahydro-2H-pyran-4-yl)propanamide]
4.80 to 5.80 | O=C(Nc1ncc(Cl)s1)C(CC1CCCCC1)n1ccc(C(=O)N2CCCC2)cc1=O (stereo not shown) [Example 129, N-(5-chlorothiazol-2-yl)-3-cyclohexyl-2-(2-oxo-4-(pyrrolidine-1-carbonyl)pyridin-1(2H)-yl)propanamide]
4.80 to 5.80 | O=C(Nc1nc2ccc(Cl)cc2s1)C(CC1CCOCC1)n1ccc(S(=O)(=O)C2CC2)cc1=O (stereo not shown) [Example 130, N-(6-chlorobenzo[d]thiazol-2-yl)-2-(4-(cyclopropylsulfonyl)-2-oxopyridin-1(2H)-yl)-3-(tetrahydro-2H-pyran-4-yl)propanamide]
4.80 to 5.80 | O=C(Nc1nc2ccc(F)cc2s1)C(CC1CCOCC1)n1ccc(S(=O)(=O)C2CC2)cc1=O (stereo not shown) [Example 131, 2-(4-(cyclopropylsulfonyl)-2-oxopyridin-1(2H)-yl)-N-(6-fluorobenzo[d]thiazol-2-yl)-3-(tetrahydro-2H-pyran-4-yl)propanamide]
4.80 to 5.80 | COC(C)(C)c1cnc(NC(=O)[C@@H](CC2CCOCC2)n2ccc(S(=O)(=O)C3CC3)cc2=O)s1 [Example 132, (R)-2-(4-(cyclopropylsulfonyl)-2-oxopyridin-1(2H)-yl)-N-(5-(2-methoxypropan-2-yl)thiazol-2-yl)-3-(tetrahydro-2H-pyran-4-yl)propanamide]
4.80 to 5.80 | COC(C)(C)c1cnc(NC(=O)[C@H](CC2CCOCC2)n2ccc(S(=O)(=O)C3CC3)cc2=O)s1 [Example 133, (S)-2-(4-(cyclopropylsulfonyl)-2-oxopyridin-1(2H)-yl)-N-(5-(2-methoxypropan-2-yl)thiazol-2-yl)-3-(tetrahydro-2H-pyran-4-yl)propanamide]
> 5.80 | Cc1cc(S(=O)(=O)Cc2cccs2)cc(=O)n1C(CC1CCOCC1)C(=O)Nc1ncc(Cl)s1 (stereo not shown) [Example 134, N-(5-chlorothiazol-2-yl)-2-(6-methyl-2-oxo-4-(thiophen-2-ylmethylsulfonyl)pyridin-1(2H)-yl)-3-(tetrahydro-2H-pyran-4-yl)propanamide]
> 5.80 | Cc1c(S(=O)(=O)C2CCCC2)c(C)c(=O)n([C@@H](CC2CCOCC2)C(=O)Nc2ncc(Cl)s2)c1C [Example 135, (S)-N-(5-chlorothiazol-2-yl)-2-(4-(cyclopentylsulfonyl)-3,5,6-trimethyl-2-oxopyridin-1(2H)-yl)-3-(tetrahydro-2H-pyran-4-yl)propanamide]
4.80 to 5.80 | Cc1c(S(=O)(=O)C2CCCC2)c(C)c(=O)n([C@H](CC2CCOCC2)C(=O)Nc2ncc(Cl)s2)c1C [Example 136, (R)-N-(5-chlorothiazol-2-yl)-2-(4-(cyclopentylsulfonyl)-3,5,6-trimethyl-2-oxopyridin-1(2H)-yl)-3-(tetrahydro-2H-pyran-4-yl)propanamide]
4.80 to 5.80 | O=C(Nc1ncc(Cc2ccc(F)cc2)s1)C(CC1CCOCC1)n1ccc(S(=O)(=O)C2CC2)cc1=O (stereo not shown) [Example 138, 2-(4-(cyclopropylsulfonyl)-2-oxopyridin-1(2H)-yl)-N-(5-(4-fluorobenzyl)thiazol-2-yl)-3-(tetrahydro-2H-pyran-4-yl)propanamide]
4.80 to 5.80 | O=C(Nc1nccs1)C(CC1CCOCC1)n1cc(S(=O)(=O)N2CCCC2)ccc1=O (stereo not shown) [Example 139, 2-(2-oxo-5-(pyrrolidin-1-ylsulfonyl)pyridin-1(2H)-yl)-3-(tetrahydro-2H-pyran-4-yl)-N-(thiazol-2-yl)propanamide]
